The values below are quoted from earlier work in patent US8221792B2 (Farnam Companies, Inc., priority 2005, dated 2012).

Structures can show the parent of a compound that is named as a salt. Where two headings read alike, the source gives them in different places.

For data set [1] the following is noted: in human.
For data set [2] the following is noted: in dogs.
The conditions of data set [3]: in vivo.

Take `COc1cccc([C@@]2(O)CCCC[C@@H]2CN(C)C)c1` (racemic) [tramadol, rac-(1R,2R)-2-(dimethylaminomethyl)-1-(3-methoxyphenyl)-cyclohexanol]: the half-life was 5.6 to 7.0 h in data set [1] and 0.8 to 1.7 h in data set [2].
With `NCC1(CC(=O)O)CCCCC1` [Gabapentin], the elimination half-life in data set [3] is 5 to 7 h.
Consider `COc1cccc(C2(O)CCCCC2CN(C)C)c1` (centres unmarked) [Tramadol HCl], for which the solubility in water result is recorded as “freely soluble”. In addition, the solubility in water entry (listed as tramadol hydrochloric acid salt) is reported as “highly water soluble”.

One may read the half-life as the time needed for the level to fall by half in the phase considered.
